The results in this text go back to PubChem BioAssay (NCI).

Test systems include BT-549 breast; HOP-62 NSCLC; IGROV1 ovarian; KM12 colon; MDA-MB-435; OVCAR-4 ovarian; PC-3 prostate; RXF 393 renal; SN12C renal; SR leukemia; TK-10 renal.
What all share (experiment): NCI tumour cell line growth inhibition, 48 h

Each structure is given as a SMILES string.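 The compound was tested at five concentrations on cells cultured in 96-well plates, with a 48-hour exposure period. Definition used: TGI = concentration required for complete inhibition of growth.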

On to `CCOC(=O)C1(Cc2ccccc2)CCN(C(=O)c2ccccc2)C2C1C2(Cl)Cl` (stereo unspecified), for which the TGI was 62.2 µM in the test on BT-549 breast; 87.2 µM in the test on HOP-62 NSCLC; greater than 100 µM with IGROV1 ovarian; 94.9 µM in the test with KM12 colon; 48.3 µM with MDA-MB-435; greater than 100 µM in the test on OVCAR-4 ovarian. For the same molecule, the TGI stood at 50.1 µM in the test with PC-3 prostate; 36.5 µM in the test with RXF 393 renal; 32.4 µM in the test with SN12C renal; 69.7 µM with SR leukemia; 59.8 µM in the test with TK-10 renal.

As for `COC(=O)CC1(O)C(C=C(C)C)C(C(=O)OC)C(=O)C(C(=O)OC)C1C(=O)OC` (stereo unspecified), the TGI in the test on BT-549 breast, in the test with HOP-62 NSCLC, with IGROV1 ovarian, in the test on KM12 colon, in the test with MDA-MB-435 and in the test on OVCAR-4 ovarian was greater than 100 µM throughout. In addition, the TGI in the test on PC-3 prostate, in the test with RXF 393 renal, in the test with SN12C renal, in the test with SR leukemia and in the test with TK-10 renal was greater than 100 µM throughout.

`COc1ccc(C2c3cc4c(cc3OC(N3CCOCC3)C2C)OCO4)c(OC)c1` (stereo unspecified): the TGI in the test with BT-549 breast is 87.7 µM; in the test on HOP-62 NSCLC, 31.5 µM; in the test with IGROV1 ovarian, greater than 100 µM; in the test with KM12 colon it was 34 µM; with MDA-MB-435, 8.83 µM; in the test with OVCAR-4 ovarian, greater than 100 µM. The TGI with PC-3 prostate is greater than 100 µM; with RXF 393 renal, 10.7 µM; in the test on SN12C renal, 65.9 µM; in the test on SR leukemia it was greater than 68 µM; in the test on TK-10 renal, 69.6 µM.

As to `c1ccc2c(Cc3c[nH]c4ccccc34)c[nH]c2c1`, the TGI was determined as 36.8 µM in the test with BT-549 breast; 33.8 µM in the test on HOP-62 NSCLC; 30.7 µM in the test with IGROV1 ovarian; 40.5 µM with KM12 colon; 31.3 µM in the test on MDA-MB-435; 35.3 µM with OVCAR-4 ovarian. Besides, the TGI with PC-3 prostate was found to be 38.3 µM; in the test with RXF 393 renal, 33.1 µM; in the test on SN12C renal it was 31.7 µM; with SR leukemia, 34.2 µM; in the test on TK-10 renal it was 35.2 µM.

Regarding `CC1(C)SC2C(NC(=O)Cc3ccccc3)C(=O)N2C1C(=O)O` (stereo unspecified), the TGI in the test on BT-549 breast, in the test on HOP-62 NSCLC, in the test on IGROV1 ovarian, in the test on KM12 colon, in the test on MDA-MB-435 and in the test on OVCAR-4 ovarian was greater than 100 µM each time. The TGI in the test with PC-3 prostate, in the test with RXF 393 renal, with SN12C renal, with SR leukemia and in the test on TK-10 renal was greater than 100 µM throughout.

Regarding `O=C(CN=C(CN(c1ccccc1)c1ccccc1)Oc1c([N+](=O)[O-])cc([N+](=O)[O-])cc1[N+](=O)[O-])N1CCNCC1`, the TGI with BT-549 breast, with HOP-62 NSCLC, in the test on IGROV1 ovarian, in the test on KM12 colon, with MDA-MB-435 and in the test on OVCAR-4 ovarian was greater than 100 µM each time. The TGI with PC-3 prostate, with RXF 393 renal, in the test with SN12C renal, with SR leukemia and in the test on TK-10 renal was greater than 100 µM in each case.

In the case of `Cc1ccc(N2C(=O)CC(=O)N(NC(=O)C(C)Oc3ccccc3C)C2=S)cc1` (stereo unspecified), the TGI in the test on BT-549 breast, in the test on HOP-62 NSCLC, with IGROV1 ovarian, in the test with KM12 colon, in the test on MDA-MB-435 and in the test with OVCAR-4 ovarian was greater than 100 µM throughout. Also, the TGI in the test with PC-3 prostate, in the test on RXF 393 renal, with SN12C renal, with SR leukemia and with TK-10 renal was greater than 100 µM each time.

Consider `CCOC(=O)CC[C@@H](NC(=O)c1ccc(NCc2ccc3nc(OC)c(OC)nc3c2)cc1)C(=O)OCC`, for which the TGI is greater than 100 µM in the test with BT-549 breast; greater than 100 µM with HOP-62 NSCLC; 56.7 µM in the test with IGROV1 ovarian; greater than 100 µM with KM12 colon; 99.2 µM in the test on MDA-MB-435; greater than 100 µM in the test with OVCAR-4 ovarian. For the same molecule, the TGI in the test on PC-3 prostate was greater than 100 µM; with RXF 393 renal, greater than 58.1 µM; in the test with SN12C renal, greater than 100 µM; in the test with SR leukemia, greater than 87.4 µM; in the test on TK-10 renal it was greater than 100 µM.

Regarding `OCC1CCCCN1Cc1nc2ccc(Cl)cc2[nH]1` (stereo unspecified), the TGI with BT-549 breast, with HOP-62 NSCLC, in the test with IGROV1 ovarian, in the test with KM12 colon, in the test with MDA-MB-435 and with OVCAR-4 ovarian was greater than 100 µM in each case. For the same molecule, the TGI in the test with PC-3 prostate, in the test with RXF 393 renal, with SN12C renal, in the test on SR leukemia and in the test with TK-10 renal was greater than 100 µM in each case.

In the case of `O=C(/C=C/c1ccc(Cl)c(Cl)c1)CCN1CCN(CCC(=O)/C=C/c2ccc(Cl)c(Cl)c2)CC1`, the TGI with BT-549 breast is 59.8 µM; with HOP-62 NSCLC, 60.6 µM; in the test on IGROV1 ovarian it was 49 µM; in the test on KM12 colon it was 40.6 µM; in the test on MDA-MB-435, 55.1 µM; with OVCAR-4 ovarian it was 46.7 µM. In addition, the TGI in the test with PC-3 prostate was 57.1 µM; in the test on RXF 393 renal, 38.9 µM; in the test on SN12C renal, 80.9 µM; in the test with SR leukemia, greater than 100 µM; in the test on TK-10 renal, 36.6 µM.

`Cn1c2ccccc2n2c3ccccc3c(=S)c(C#N)c12`: the TGI with BT-549 breast, with HOP-62 NSCLC, in the test on IGROV1 ovarian, in the test with KM12 colon, in the test with MDA-MB-435 and in the test on OVCAR-4 ovarian was greater than 100 µM throughout. Further, the TGI in the test on PC-3 prostate, in the test on RXF 393 renal, with SR leukemia and with TK-10 renal was greater than 100 µM in each case.

Regarding `CC1=NN(C(=O)CC(=O)Nc2cccc(Cl)c2)C(=O)C1N=Nc1ccc(S(=O)(=O)c2ccc(N=NC3C(=O)N(C(=O)CC(=O)Nc4cccc(Cl)c4)N=C3C)cc2)cc1` (stereo unspecified), the TGI in the test with BT-549 breast, with HOP-62 NSCLC, in the test on IGROV1 ovarian, in the test with KM12 colon, in the test on MDA-MB-435 and in the test with OVCAR-4 ovarian was greater than 100 µM in each case. The TGI in the test with PC-3 prostate, with RXF 393 renal, in the test on SN12C renal, in the test on SR leukemia and with TK-10 renal was greater than 100 µM each time.
